Columns and labels:
[1] = system: synthetic lipid vesicles; assay: Fluorescence enhancement assay of NBD-labeled MARCKS peptides with synthetic vesicles; format: binding; details: FIG. 4B
Source text: In another exemplary method, lipid vesicles were employed to the curvature-sensing behavior of the MARCKS derived peptides with various sizes and lipid components. The membrane curvature is defined as the reciprocal of the diameter of a particular particle, e.g., smaller-sized vesicles present highly curved membrane bilayers. A series of lipid models were made to represent various lipid components that closely resemble the lipid composition of biological membranes. […] Dynamic light scattering (DLS) and negative-stain transmission electron microscopy (TEM) were performed to confirm the different vesicle sizes following the pressure-controlled extrusion process through different membrane diameter pores. Commercial polystyrene beads were used as the calibration standard for the vesicle size validation experiments. Furthermore, a time-course experiment was carried out to confirm the stability of the vesicles up to 16 hours. Three different membrane diameters were extruded for the following biophysical characterizations: 30 nm, 100 nm, 400 nm, reflecting different membrane curvatures.
Next, a fluorescence enhancement assay was conducted to further quantify the curvature- and PS-sensing behavior of MARCKS-ED. Appropriate controls were performed to confirm that the fluorophore alone had no effect on the observed fluorescence enhancement (data not shown). FIG. 4 represents histogram data of fluorescence enhancement assay with and fluorescence anisotropy titration of the NBD labeled MARCKS derived peptides. Upon binding to lipid vesicles, the fluorescence intensity of NBD-MARCKS-ED increased due to vesicle binding and changes in the hydrophobic environment surrounding the fluorophore, concurring with a slight blue shift of the maximum emission wavelength. The emission spectra of all NBD-labeled peptides were recorded using a Fluorolog-3 fluorometer with λex=480 nm. The peptides and protein were tested at a concentration of 500 nM in PBS (pH 7.40) treated with 500 μM synthetic vesicles of different vesicles sizes. […] The positive control C2AB (200 nM) from the rat Synaptotagmin-1 (Syn-1) protein (G374, residues 96-421) was treated with CaCl2 (2.5 mM) and observed with λex of 275 nm and emission range of 300-450 nm. The untreated peptide and Ca^2+-C2AB samples were corrected by the PBS (pH=7.40) blank solution for the peptides and PBS with Ca^2+ for the Ca^2+-C2AB sample. All samples were prepared and incubated overnight in 4° C.
FIG. 4A illustrates a histogram plot of fluorescence intensity of MARCKS-ED treated with lipid vesicles of various sizes. […] Last, the fluorescence intensity differences were less significant with vesicles containing no PS. […]

[2] = system: lipid vesicles 60% POPC:15% cholesterol:15% POPE:10% POPS; assay: Fluorescence anisotropy titration of NBD-labeled MARCKS peptides with lipid vesicles; format: binding; details: FIG. 4D
Description: In another example, because fluorescence enhancement assays could not distinguish the contributions between different degrees of membrane penetration and binding affinity, fluorescence anisotropy assay was performed to specifically measure the binding affinity of the MARCKS derived peptides. The NBD-labeled peptides (1 μM) were titrated by synthetic liposomes of various sizes (30, 100, and 400 nm). Fluorescence anisotropy was recorded using a Fluorolog-3 fluorometer. The mixture was allowed to equilibrate for 2 minutes prior to the next titration. The excitation wavelength was set to λex=480 nm whereas the emission filter was set to λem=545 nm. The voltage was set to 250 V throughout the experiment. Blank PBS (pH=7.40) was titrated to NBD-labeled peptides as a negative control, where negligible anisotropy change was observed. The following equation was used to determine the dissociation constants as previously reported: Fb=Kp [L]/(1+KP[L]), where Fb expresses the fraction of peptide bound to lipids, Kp expresses the molar partition coefficient and [L] expresses the lipid concentration.
Lipid vesicles were titrated to NBD-labeled MARCKS-ED, MARCKSmut1, or MARCKSmut2 peptides. Since the peptide partitions between the hydrophobic lipid bilayer and the aqueous solvent, the molar partition coefficient is often reported. By definition, the apparent dissociation constant (Kd), described as the lipid concentration where 50% of the peptide is bound, is the reciprocal of the molar partition coefficient (Kp). Fluorescence anisotropy assay results indicated efficient curvature sensing by MARCKS-ED. FIG. 4C represents an exemplary fluorescence anisotropy titration of MARCKS-ED with various lipid vesicles. FIG. 4D provides data of fluoresence anisotropy titration of various MARCKS derived peptides. Lipid vesicles used in the experiments represented by FIGS. 4C-4D contained 60% POPC:15% cholesterol: 15% POPE: 10% POPS. […] As a comparison, C2AB illustrated a 1.9 fold increase in binding to smaller vesicles (105 nm) relative to the larger ones (252 nm). […] In addition, electrostatic interactions of MARCKSmut2 were also compromised. […] Such defects would permit the Phe residue to insert and stabilize the highly curved membranes.

[3] = system: microvesicles in plasma; assay: Nanoparticle tracking analysis of microvesicles in plasma from stressed rats treated with MARCKS peptides; format: binding, rat; details: Alexa Fluor 546 labeled peptides 55 nM
Description: These isolated microvesicles were measured by nanoparticle tracking analysis (NTA) to confirm their average size (ø=56 nm). Tracking analyses were performed using the NanoSight LM10-HS instrument (Amesbury, UK) equipped with a 532 nm laser and observed at scatter and fluorescence modes (filter=550 nm). The instrument was calibrated using commercially available 50 nm polystyrene beads. […] Alexa Fluor 546™-labeled mouse anti-rat CD63 and unconjugated Alexa Fluor 546™ were used as positive and negative controls, respectively. The profiles of MARCKS-ED-Alexa Fluor 546™ and Alexa Fluor 546™ in the absence of microvesicles were also investigated to confirm that these show negligible scatter and fluorescence background signals under identical NTA conditions.
FIG. 5A represents fluorescence enhancement assay with MARCKS-ED incubated with the isolated microvesicles. Peptide MARCKS-ED ([…]) not treated with microvesicles was used as a negative control. Annexin-V (a positive control) and MARCKS-ED were incubated with the isolated rat microvesicles. Fluorescence was normalized to the negative control. […] The diameter size and particle count of the isolated microvesicles detected by MARCKS-ED was further quantified. Nanoparticle tracking analysis (NTA) uses a laser for scatter and fluorescence modes to track small particles by Brownian motion, providing a robust method for detecting nano-sized microvesicles. Under the fluorescence mode with the emission filter set for the Alexa Fluor 546™, the particles that bound to MARCKS-ED, MARCKSmut1, and MARCKSmut2peptides were observed.
FIG. 5B illustrates the results of NTA of microvesicles treated with MARCKS derived peptides. […] The untreated plasma samples were detected using the scatter mode and treated samples were monitored by tracking the fluorescence of Alexa Fluor 546™ conjugated to the MARCKS-ED MARCKSmut1 and MARCKSmut2 peptides. […] Furthermore, blank samples were performed to rule out possible artifacts of background fluorescence from the peptides, the vesicles and the unconjugated dye.

[4] = system: 29 nm liposomes; details: with 29 nm liposomes; cited from earlier work
[5] = system: PS-exposing cell membranes; assay: Fluorescence staining of PS-exposing membranes in dissected gonads of C. elegans; format: in vivo; details: wild type (N2), tat-1(tm3117) and ced-7(n2094) animals
Description: Fluorescence staining assays were carried out in an acceptible C. elegans model with PS-exposing cell membranes. […] NBD-MARCKS-ED was used to stain the dissected gonads of wild type (N2) animals, tat-1(tm3117) mutant animals, and engulfment-deficient ced-7 (n2094) mutant animals, respectively. 36 hour old hermaphrodite adult animals were collected and gently dissected by cutting their heads in a depression slide with a gonad dissection buffer (previously presented) to expose the gonads. The exposed gonads were then washed once in the dissection buffer and transferred to a dissection buffer containing 4 μM of Hoechst 33342 and 20 μM of NBD labeled MARCKS-ED peptide, 20 μM NBD-MARCKSmut1 peptide, or 10 nM Alexa Fluor 488-conjugated Annexin-V for 45 minutes. Gonads were washed one more time in the dissection buffer, placed on a 5% agarose pad, and visualized using a Nomarski microscope equipped with an epifluorescence detector.
FIGS. 6A-6C illustrate exemplary staining results using MARCKS derived peptides and Annexin V. PS is typically kept in the inner leaflet of plasma membranes in living cells and is exposed on the cell surface only under certain cellular events, i.e., when cells undergo apoptosis or lose the ability to maintain the PS asymmetry with a tat-1 gene mutation. FIG. 6A represents the staining results with labeled MARCKS-ED in wild type and mutants C. elegans. […] FIG. 6B represents the staining results with labeled MARCKSmut1 in wild type and mutants C. elegans. […] In FIGS. 6A-6B, nuclei were stained with Hoechst 33342. Annexin-V, a known PS-sensor, was also used to stain the gonads of tat-1 and ced-7 mutant C. elegans. […] Hoechst33342 (4 μM), FITC-AnnexinV (10 nM) and Nomarski images are shown. […] Scale bar=10 μm.

[6] = system: isolated microvesicles; assay: Fluorescence enhancement with isolated rat microvesicles; format: binding
Description: In another exemplary method, having established the simultaneous curvature- and PS-sensing by MARCKS-ED in synthetic liposomes, MARCKS-ED was tested on detection of highly curved, PS-enriched particles in a complex biological system. Microvesicles (ø=0.03-1 μm) are highly curved lipid vesicles that shed into body fluids (e.g., blood, urine, ascitic fluid). These vesicles are released by cancerous cells in which lipid asymmetry is de-regulated, contributing to externalization and enrichment of PS on their outer leaflet. The microvesicle detecting ability of MARCKS-ED was investigated using plasma samples from a stressed rat model. […]
Microvesicles in these samples were characterized by TEM imaging, and ELISA of detection of the signature CD63 protein and the membrane transport protein Rab5b exposed on the surface. Particles expressing both proteins were captured by antibodies and quantified in a colorimetric endpoint assay.
These isolated microvesicles were measured by nanoparticle tracking analysis (NTA) to confirm their average size (ø=56 nm). Tracking analyses were performed using the NanoSight LM10-HS instrument (Amesbury, UK) equipped with a 532 nm laser and observed at scatter and fluorescence modes (filter=550 nm). […]
Monitored at λex=295 nm, Annexin-V (0.32 μM) was treated with CaCl2 (3 mM) in TES buffer and with 500 μM lipid vesicles of varying PS content. […]

binding affinity [2]	Substance	fluorescence enhancement and curvature sensing [1]	binding to microvesicles in whole plasma (NTA fluorescence mode) [3]	fluorescence enhancement [4] [RFU]	staining of PS-exposed membranes [5]	binding to isolated microvesicles (fluorescence enhancement) [6]
compromised	AAAAAAFSFAASFALSGFSFAANAA [MARCKSmut2, MARCKS-ED with positively charged residues (Lys, Arg) mutated to Ala]	significantly reduced fluorescence enhancement	only negligible binding			
	nuclear pore complex protein-133245-267: ALPS motif-bearing established curvature-sensing protein fragment (LPQGQGMLSGIGRKVSSLFGILS; UniProt Q8WUM0 245-267, looked up, fragment)			~1.25		
greatly reduced binding affinity	KKKKKRASAKKSAKLSGASAKKNKK [MARCKSmut1, MARCKS-ED with the five Phe residues mutated to Ala]	significantly reduced fluorescence enhancement	some preferential binding to smaller vesicles but with much weaker fluorescence signal		did not appear to detect PS-exposed membranes in either tat-1 or ced-7 mutant animals	
	Golgi-microtubule-associated protein-2101-38: ALPS motif-bearing established curvature-sensing protein fragment (MSSWLGGLGSGLGQSLGQVGGSLASLTGQISNFTKDML; UniProt Q15643 1-38, looked up, fragment)			~1.25		
	Annexin-V: established PS-sensing protein, positive control [reference compound]				germ cell corpses stained with both Hoechst and FITC-AnnexinV protein	Fluorescence enhancement was observed
